SMILES strings stand for the structures. Active and inactive are the calls of the source. No cut-off for these calls is given here.

Data set [1] concerns the target T1, Aromatase (Homo sapiens, UniProt P11511).
T1 sequence (P11511 whole entry): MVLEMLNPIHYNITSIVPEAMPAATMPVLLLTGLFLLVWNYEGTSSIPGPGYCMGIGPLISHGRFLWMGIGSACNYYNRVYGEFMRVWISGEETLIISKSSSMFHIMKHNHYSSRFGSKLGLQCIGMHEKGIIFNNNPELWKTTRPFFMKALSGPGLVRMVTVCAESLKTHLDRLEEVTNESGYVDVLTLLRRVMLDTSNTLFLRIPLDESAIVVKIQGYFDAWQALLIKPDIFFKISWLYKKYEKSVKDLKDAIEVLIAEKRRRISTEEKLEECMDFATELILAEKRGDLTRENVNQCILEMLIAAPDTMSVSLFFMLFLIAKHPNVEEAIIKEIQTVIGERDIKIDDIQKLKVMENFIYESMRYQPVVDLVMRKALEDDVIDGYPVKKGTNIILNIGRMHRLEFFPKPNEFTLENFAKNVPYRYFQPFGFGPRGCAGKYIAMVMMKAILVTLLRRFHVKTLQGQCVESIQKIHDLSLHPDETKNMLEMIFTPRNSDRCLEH
Nature of the data set: Inhibition of aromatase using 7-methoxy-4-trifluoromethyl coumarin as substrate after 30 mins by fluorescence-based colorimetric analysis.

For data set [2], the system named is NCI-H295R. Nature of the data set: Antiproliferative activity against human NCI-H295R cells at 10 nM after 24 hrs by Cell titer blue assay. In kind it is functional. For orientation: Alamar Blue is a resazurin reagent that responds to reducing activity.
Data set [3] relates to NCI-H295R. Kind of data set: Antiproliferative activity against human NCI-H295R cells at 10 nM after 72 hrs by Cell titer blue assay. In kind it is functional.
Data set [4] relates to NCI-H295R. Kind of data set: Antiproliferative activity against human NCI-H295R cells assessed as cell viability at 10 nM after 24 to 72 hrs by Cell titer blue assay. Conditions: read-out: GI. In kind it is functional.
The test system of data set [5] is NCI-H295R. Kind of data set: Antiproliferative activity against human NCI-H295R cells assessed as [3H]thymidine incorporation at 10 nM after 24 hrs by scintillation counting. The format is functional. Conditions: read-out: GI. (Incorporation of labelled thymidine or its analogues reports DNA synthesis.)
Data set [6] has as its target T1, Aromatase. Kind of data set: Ratio of letrozole IC50 to compound IC50 for aromatase.

Usually IC50 stands for the concentration needed to halve the response being measured. High values mean weaker potency in that assay, low ones greater potency in that assay. As to `N#Cc1ccc(C(c2ccc(C#N)cc2)n2cc(C3CCCCC3)nn2)cc1`, the IC50 against Aromatase [1] was 19.3 µM.

For the compound `N#Cc1ccc(C(c2ccc(C#N)cc2)n2cc(COc3ccc(-c4ccccc4)cc3)nn2)cc1`, the IC50 against Aromatase [1] amounted to 13.3 µM.

The compound `CCCCCCc1cn(Cc2ccccc2)nn1` showed an IC50 on Aromatase [1] of 7.47 µM.

On Aromatase [1], `N#Cc1ccc(C(c2ccc(C#N)cc2)n2cc(-c3ccccc3)nn2)cc1` gave an IC50 of 10.3 µM. This IC50 and that of the compound before are within 1.5-fold of each other.

On Aromatase [1], `N#Cc1ccc(C(c2ccc(C#N)cc2)n2cc(COc3ccc(Cl)cc3)nn2)cc1` showed an IC50 of 16.1 µM. This IC50 lies about 1.6-fold higher than the previous one.

On to `Cc1ccc(OCc2cn(Cc3ccc(C#N)cc3)nn2)cc1`, for which the IC50 at Aromatase [1] stood at 4.17 µM.

Consider `COc1ccc(OCc2cn(Cc3ccc(C#N)cc3)nn2)cc1`, for which half-maximal inhibition against Aromatase [1] (IC50) required 2.34 µM. Against the preceding compound, the IC50 is about 1.8-fold lower.

As to `c1ccc(Cn2cc(COc3ccc(-c4ccccc4)cc3)nn2)cc1`, the 50% inhibitory concentration (IC50) against Aromatase [1] worked out at 10.7 µM.

On Aromatase [1], `N#Cc1ccc(Cn2cc(COc3ccc(C#N)cc3)nn2)cc1` showed an IC50 of 9.16 µM.

For `N#Cc1ccc(OCc2cn(Cc3ccccc3)nn2)cc1`, the 50% inhibitory concentration (IC50) against Aromatase [1] was found to be 1.36 µM. In addition, the “growth inhibition (GI)” value in the data set on NCI-H295R [2] and in the data set on NCI-H295R [3] was “inactive” in each case.

At Aromatase [1], `CCCCCCCCCCc1cn(Cc2ccccc2)nn1` gave a 50% inhibitory concentration (IC50) of 6.4 µM.

As to `CCCCCCc1cn(C(c2ccc(C#N)cc2)c2ccc(C#N)cc2)nn1`, inhibition against Aromatase [1] was half-maximal at 5.07 µM (IC50).

In the case of `c1ccc(-c2ccc(OCc3cn(C(c4ccccc4)c4ccccc4)nn3)cc2)cc1`, half-maximal inhibition at Aromatase [1] (IC50) required 15.5 µM.

As for `O=[N+]([O-])c1ccc(OCc2cn(C(c3ccccc3)c3ccccc3)nn2)cc1`, the midpoint of inhibition against Aromatase [1], the IC50, lay at 11.6 µM.

Regarding `N#Cc1ccc(Cn2cc(COc3ccccc3)nn2)cc1`, half-maximal inhibition against Aromatase [1] (IC50) required 6.09 µM.

The compound `N#Cc1ccc(OCc2cn(C(c3ccc(C#N)cc3)c3ccc(C#N)cc3)nn2)cc1` registered an IC50 on Aromatase [1] of 4.64 µM. The inhibition of growth at 0.01 µM in the data set on NCI-H295R [2] (read-out: GI) is 76%; in the data set with NCI-H295R [3] (read-out: GI), 99%.

On to `N#Cc1ccc(C(c2ccc(C#N)cc2)n2cc(COc3ccccc3)nn2)cc1`, for which the IC50 against Aromatase [1] was determined as 11 µM.

`N#Cc1ccc(Cn2cc(-c3ccccc3)nn2)cc1` yielded an IC50 against Aromatase [1] of 3.38 µM. This IC50 lies about 3.3-fold lower than the previous one.

`Cc1ccc(OCc2cn(Cc3ccccc3)nn2)cc1` came in with a half-maximal inhibitory concentration (IC50) against Aromatase [1] of 2.27 µM.

At Aromatase [1], `CCCc1cn(Cc2ccc(C#N)cc2)nn1` yielded an IC50 of 4.37 µM.

Compound `c1ccc(C(c2ccccc2)n2cc(C3CCCCC3)nn2)cc1` had an IC50 against Aromatase [1] of 13.7 µM.

On Aromatase [1], `c1ccc(C(c2ccccc2)n2nccn2)cc1` showed an IC50 of 12 µM.

Take `N#Cc1ccc(C(c2ccc(C#N)cc2)n2ccnc2)cc1`: the inhibition of growth at 0.01 µM with NCI-H295R [4] was found to be 40%.

Compound `CCCc1cn(C(c2ccccc2)c2ccccc2)nn1` returned an IC50 against Aromatase [1] of 11 µM.

The compound `c1ccc(Cn2cc(-c3ccccc3)nn2)cc1` yielded an IC50 on Aromatase [1] of 9.77 µM.

`c1ccc(C(c2ccccc2)n2cncn2)cc1` had a half-inhibitory concentration (IC50) against Aromatase [1] of 1.1 µM.

On to `Clc1ccc(OCc2cn(C(c3ccccc3)c3ccccc3)nn2)cc1`, for which the IC50 at Aromatase [1] came out at 13.4 µM.

Consider `N#Cc1ccc(Cn2nccn2)cc1`, for which the concentration for half-maximal inhibition (IC50) against Aromatase [1] was 12.2 µM.

For `c1ccc(Cn2cncn2)cc1`, half-maximal inhibition at Aromatase [1] (IC50) was put at 4.11 µM. This IC50 lies about 3-fold lower than the previous one.

`N#Cc1ccc(C(c2ccc(C#N)cc2)n2cc(COc3ccc([N+](=O)[O-])cc3)nn2)cc1` had an IC50 on Aromatase [1] of 7.73 µM. This IC50 is about 1.9-fold higher than that of the compound before.

On to `c1ccc(Cn2ccnn2)cc1`, for which the IC50 against Aromatase [1] is 11.9 µM.

The compound `CCCCCCc1cn(Cc2ccc(C#N)cc2)nn1` had an IC50 against Aromatase [1] of 5.26 µM.

The compound `CCCCCCCCCCc1cn(Cc2ccc(C#N)cc2)nn1` had an IC50 against Aromatase [1] of 7.88 µM.

Regarding `Cc1ccc(OCc2cn(C(c3ccc(C#N)cc3)c3ccc(C#N)cc3)nn2)cc1`, the IC50 against Aromatase [1] turned out to be 11 µM.

In turn, `CCCCCCCCCCc1cn(C(c2ccccc2)c2ccccc2)nn1` showed a 50% inhibitory concentration (IC50) against Aromatase [1] of 13.5 µM.

`N#Cc1ccc(C(c2ccc(C#N)cc2)n2nccn2)cc1`: on Aromatase [1], the concentration for half-maximal inhibition (IC50) stood at 80 µM.

Compound `CCCc1cn(Cc2ccccc2)nn1` registered an IC50 at Aromatase [1] of 12.6 µM. Compared with the last compound, the IC50 is about 6.3-fold lower.

On to `c1ccc(-c2cn(C(c3ccccc3)c3ccccc3)nn2)cc1`, for which, on Aromatase [1], inhibition was half-maximal at 12.9 µM (IC50).

As for `COc1ccc(OCc2cn(C(c3ccccc3)c3ccccc3)nn2)cc1`, on Aromatase [1], the half-inhibitory concentration (IC50) amounted to 15.2 µM. This IC50 and that of the compound before are within 1.5-fold of each other.

The compound `c1ccc(OCc2cn(C(c3ccccc3)c3ccccc3)nn2)cc1` gave an IC50 at Aromatase [1] of 31.3 µM.

Take `c1ccc(Cn2cc(C3CCCCC3)nn2)cc1`: half-maximal inhibition against Aromatase [1] (IC50) required 7.98 µM.

`CCCCCCc1cn(C(c2ccccc2)c2ccccc2)nn1` gave a half-maximal inhibitory concentration (IC50) against Aromatase [1] of 14.8 µM.

Compound `CCCc1cn(C(c2ccc(C#N)cc2)c2ccc(C#N)cc2)nn1` showed an IC50 against Aromatase [1] of 4.7 µM.

At Aromatase [1], `N#Cc1ccc(Cn2cc(COc3ccc(-c4ccccc4)cc3)nn2)cc1` showed an IC50 of 11.6 µM.

`O=[N+]([O-])c1ccc(OCc2cn(Cc3ccccc3)nn2)cc1` displayed an IC50 against Aromatase [1] of 2.78 µM.

In turn, `Cc1ccc(OCc2cn(C(c3ccccc3)c3ccccc3)nn2)cc1` showed an IC50 against Aromatase [1] of 26.8 µM.

For the compound `N#Cc1ccc(Cn2cncn2)cc1`, on Aromatase [1], the IC50 came out at 0.15 µM.

Consider `c1ccc(C(c2ccccc2)n2ccnn2)cc1`, for which, on Aromatase [1], inhibition was half-maximal at 4.58 µM (IC50).

`N#Cc1ccc(Cn2cc(COc3ccc(Cl)cc3)nn2)cc1` returned a half-inhibitory concentration (IC50) at Aromatase [1] of 3.91 µM.

`COc1ccc(OCc2cn(Cc3ccccc3)nn2)cc1`: the IC50 against Aromatase [1] came out at 17.3 µM.

Turning to `c1ccc(Cn2nccn2)cc1`, it took 16.3 µM to reach half-maximal inhibition against Aromatase [1] (IC50).

At Aromatase [1], `Clc1ccc(OCc2cn(Cc3ccccc3)nn2)cc1` came in with a half-maximal inhibitory concentration (IC50) of 5.04 µM.

The compound `c1ccc(Cn2ccnc2)cc1` [BENZYLIMIDAZOLE] returned a half-maximal inhibitory concentration (IC50) on Aromatase [1] of 0.15 µM.

The compound `CCCCCCCCCCc1cn(C(c2ccc(C#N)cc2)c2ccc(C#N)cc2)nn1` returned an IC50 against Aromatase [1] of 16 µM.

On Aromatase [1], `CCCCCCCc1cn(C(c2ccccc2)c2ccccc2)nn1` registered a 50% inhibitory concentration (IC50) of 19.4 µM. This IC50 and that of the compound before are within 1.5-fold of each other.

Turning to `N#Cc1ccc(C(c2ccc(C#N)cc2)n2cncn2)cc1` [LETROZOLE], the inhibition of growth at 0.01 µM with NCI-H295R [5] is 10%.

Consider `CCCCCCCc1cn(Cc2ccc(C#N)cc2)nn1`, for which half-maximal inhibition against Aromatase [1] (IC50) required 3.07 µM.

Consider `c1ccc(Cn2cc(COc3ccccc3)nn2)cc1`, for which inhibition against Aromatase [1] was half-maximal at 10.6 µM (IC50).

For the compound `N#Cc1ccc(Cn2cc(C3CCCCC3)nn2)cc1`, the IC50 against Aromatase [1] was found to be 10.7 µM.

At Aromatase [1], `N#Cc1ccc(Cn2cc(COc3ccc([N+](=O)[O-])cc3)nn2)cc1` returned a concentration for half-maximal inhibition (IC50) of 5.62 µM.

`N#Cc1ccc(OCc2cn(C(c3ccccc3)c3ccccc3)nn2)cc1`: the IC50 against Aromatase [1] worked out at 16.4 µM. Compared with the last compound, the IC50 is about 2.9-fold higher.

In the case of `CCCCCCCc1cn(Cc2ccccc2)nn1`, the half-inhibitory concentration (IC50) against Aromatase [1] stood at 9.53 µM.

At Aromatase [1], `N#Cc1ccc(Cn2ccnn2)cc1` showed an IC50 of 0.1 µM. Moreover, the “Ratio IC50” value on Aromatase [6] is 12.5.

At Aromatase [1], `COc1ccc(OCc2cn(C(c3ccc(C#N)cc3)c3ccc(C#N)cc3)nn2)cc1` gave a half-inhibitory concentration (IC50) of 12.2 µM.

Consider `CCCCCCCc1cn(C(c2ccc(C#N)cc2)c2ccc(C#N)cc2)nn1`, for which the concentration for half-maximal inhibition (IC50) on Aromatase [1] was 10.6 µM.

The values above are taken from ChEMBL document CHEMBL1821589, “Synthesis and structure-activity relationship of 1- and 2-substituted-1,2,3-triazole letrozole-based analogues as aromatase inhibitors” (Eur J Med Chem, 2011).
